Data: patent publication US11617740B2, “Chemical inhibitors of Mycobacterium tuberculosis DosRST signaling and persistence” (priority 2017, dated 2023)
In brackets after ≈: the same amount, converted by molar mass. Entries after “also recorded” stand apart in the source; their conditions may differ. Where two headings read alike, the source gives them in different places.

Key:
[1] = tested on: DosRST pathway, CDC1551 (hspX′::GFP) reporter strain; assay: microbe, parasite or virus in culture; type: cell-based
[2] = not given; remark: listed apart in the source
[3] = tested on: DosR regulated genes dosR, hspX, tgs1; type: cell-based; details: for inhibition of hspX and tgs1 gene expression during hypoxia: 10 μM, real-time PCR; for downregulation of dosR / downregulation of hspX / downregulation of tgs1: 40 μM, 6 d, in vitro
[4] = tested on: DosRST signaling, CDC1551 (hspX′::GFP); assay: microbe, parasite or virus in culture; type: cell-based
[5] = tested on: DosR-regulated genes hspX and tgs1; type: cell-based; details: for induction of hspX by the inducer / induction of tgs1 by the inducer: 2 h induction; for inhibition of hspX following DETA-NONOate treatment / inhibition of tgs1 following DETA-NONOate treatment / inhibition of hspX transcripts following vitamin C treatment / inhibition of tgs1 transcripts following vitamin C treatment: pretreated 24 h; for inhibition of hspX following DETA-NONOate treatment / inhibition of tgs1 following DETA-NONOate treatment: DETA-NONOate 2 h; for inhibition of hspX transcripts following vitamin C treatment / inhibition of tgs1 transcripts following vitamin C treatment: vitamin C 2 h
DosR = DosR (Mycobacterium tuberculosis, UniProt P9WMF9); assay: Electrophoretic mobility shift assay (EMSA), DosR binding of hspX promoter DNA; details: for impact on DosR binding of DNA (words): 1-80 μM
DosR, sequence (P9WMF9 whole entry, looked up): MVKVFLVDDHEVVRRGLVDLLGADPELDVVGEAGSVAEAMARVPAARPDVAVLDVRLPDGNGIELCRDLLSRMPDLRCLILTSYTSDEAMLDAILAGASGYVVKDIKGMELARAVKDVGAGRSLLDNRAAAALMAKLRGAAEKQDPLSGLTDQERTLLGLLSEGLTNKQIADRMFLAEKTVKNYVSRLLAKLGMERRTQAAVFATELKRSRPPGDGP

Mtb = type: cell-based, Mycobacterium tuberculosis
DosR regulon = type: cell-based; details: WT CDC1551, 40 μM; for genes from dosR regulon inhibited: >2-fold, q<0.05
[6] = tested on: DosR-controlled genes hspX and tgs1; type: cell-based; details: 40 μM, 48 h, infected macrophages
TAG accumulation in Mtb = type: cell-based; details: 40 μM, 6 d, vs DMSO treated WT
Mtb CDC1551 = type: cell-based; details: for survival relative to DMSO control during NRP: 40 μM, 10 days
DosS = DosS (Mycobacterium tuberculosis, UniProt P9WGK3); assay: DosS autophosphorylation assay; type: biochemical; details: 10-40 μM; HC103A 40 μM
DosS, sequence (P9WGK3 whole entry): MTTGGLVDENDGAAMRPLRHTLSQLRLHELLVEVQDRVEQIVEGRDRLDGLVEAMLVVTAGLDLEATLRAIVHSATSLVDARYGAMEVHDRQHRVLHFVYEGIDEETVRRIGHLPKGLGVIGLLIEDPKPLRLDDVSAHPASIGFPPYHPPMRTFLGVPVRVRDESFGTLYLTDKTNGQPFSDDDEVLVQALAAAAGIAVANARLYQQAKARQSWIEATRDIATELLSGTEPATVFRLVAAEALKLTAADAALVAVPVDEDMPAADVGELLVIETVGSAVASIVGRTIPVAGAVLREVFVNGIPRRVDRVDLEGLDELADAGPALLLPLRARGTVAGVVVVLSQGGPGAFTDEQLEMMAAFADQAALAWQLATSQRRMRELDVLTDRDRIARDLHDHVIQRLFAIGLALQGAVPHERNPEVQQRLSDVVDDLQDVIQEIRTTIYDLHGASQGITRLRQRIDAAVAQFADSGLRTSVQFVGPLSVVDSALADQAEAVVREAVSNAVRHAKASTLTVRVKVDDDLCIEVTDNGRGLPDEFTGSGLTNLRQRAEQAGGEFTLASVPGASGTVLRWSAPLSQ
Description: Autophosphorylation assay. The DosS autophosphorylation assay was performed as previously described. DosS protein was treated with 10 μM, 20 μM or 40 μM of HC104A, or HC106A. DMSO and 40 μM HC103A were also included as […].

[7] = tested on: DosR-regulated genes hspX and tgs1; type: cell-based; details: 20 μM, 6 d
[8] = Mycobacterium tuberculosis, Table 3, HC104 series, whole cell assay, read-out: EC50
[9] = Mycobacterium tuberculosis, 144 h, CDC1551 (hspX′::GFP), 6 d, read-out: EC50 of DosRST-dependent GFP fluorescence inhibition (FI)

CN(C)CCCN1C(=O)c2cccc3cccc(c23)C1=O [HC104B]
activity in the whole cell Mtb reporter assay [1]: complete loss of activity | EC50 [1, 8]: > 200000 nM

O=C(Nc1ccno1)Nc1ccno1 [MSU-39444, 1,3-bis(1,2-oxazol-5-yl)urea]
EC50 ([1]; CDC1551 (hspX′::GFP), 6 d, read-out: EC50 of DosRST-dependent GFP fluorescence inhibition (FI)): ~2000 nM | EC50 [1, 9]: 1700 nM

O=C(Nc1cccc(Cl)c1)Nc1ccno1 [MSU-39445, 1-(3-chlorophenyl)-3-(1,2-oxazol-5-yl)urea]
EC50 [1, 9]: 750 nM | melting point: 159 °C (dec.) | solubility (physchem): > 100 µM

O=C(Nc1ccc(Cl)cc1)Nc1ccno1 [HC106F, 1-(4-chlorophenyl)-3-(1,2-oxazol-5-yl)urea]
fold enhanced activity relative to HC106A [1]: ~10 fold | fold enhanced activity relative to HC106A ([1]; whole cell assay): ~2 fold | melting point: 183 °C | Microsomes (% remaining @ 30 minutes) ([2]; microsomes, 0.5 h): 115% remaining | solubility (physchem): > 200 µM

COC(=O)c1ccc(NC(=O)Nc2ccno2)cc1 [MSU-41465, methyl 4-{[(1,2-oxazol-5-yl)carbamoyl]amino}benzoate]
melting point: 194 °C | Microsomes (% remaining @ 30 minutes) ([2]; microsomes, 0.5 h): 73 % remaining

O=C(Nc1ccno1)NC1CCCC1 [MSU-41546, 1-cyclopentyl-3-(1,2-oxazol-5-yl)urea]
melting point: 182 °C

O=C(Nc1ccc(-c2ccccc2)cc1)Nc1ccno1 [MSU-41443, 1-{[1,1′-biphenyl]-4-yl}-3-(1,2-oxazol-5-yl)urea]
melting point: 193 °C | solubility (physchem): 14 µM (≈ 3.91 µg/mL)

O=C(Nc1ccccc1)Nc1ccno1 [MSU-33189, 3-(1,2-oxazol-5-yl)-1-phenylurea]
EC50 [1, 9]: 630 nM

CC(C)(C)c1ccc(NC(=O)Nc2ccno2)cc1 [MSU-41442, 1-(4-tert-butylphenyl)-3-(1,2-oxazol-5-yl)urea]
melting point: 163 °C | solubility (physchem): > 100 µM

C[C@@H]1CC[C@H]2[C@@H](C)C(=O)O[C@@H]3O[C@@]4(C)CC[C@@H]1[C@]32OO4 [artemisinin, reference compound]
maximum inhibition of hspX ([3]; maximum inhibition): 51 fold | maximum inhibition of tgs1 ([3]; maximum inhibition): 166 fold | inhibition at 0.5 µM ([4]; Mycobacterium tuberculosis, 500 nM artemisinin alone): 40%

O=C(Nc1ccc(C(F)(F)F)cc1)Nc1ccno1 [MSU-41463, 3-(1,2-oxazol-5-yl)-1-[4-(trifluoromethyl)phenyl]urea]
melting point: 178 °C | Microsomes (% remaining @ 30 minutes) ([2]; 30 minutes): 84 % remaining

NCCN(CCN)/[N+]([O-])=N/O [DETA-NONOate, reference compound]
induction of hspX by the inducer [5]: 3024 fold | induction of tgs1 by the inducer [5]: 113 fold

O=C(NCCc1ccccc1)Nc1ccno1 [MSU-42004, 3-(1,2-oxazol-5-yl)-1-(2-phenylethyl)urea]
melting point: 165 °C

CN1C(=O)c2cccc3c(Br)ccc(c23)C1=O [HC104G]
fold less active than HC104A [1]: ~10 fold | EC50 [1, 8]: 43800 nM | fold less active than HC104A ([1]; whole cell assay): ~5 fold

O=C1O[C@H]([C@@H](O)CO)C(O)=C1O [vitamin C, reference compound]
induction of hspX by the inducer [5]: 2162 fold | induction of tgs1 by the inducer [5]: 58 fold

O=C(Nc1ccno1)NC1CCCCC1 [MSU-42002, 1-cyclohexyl-3-(1,2-oxazol-5-yl)urea]
melting point: 180 °C

O=C(Nc1ccc(Cl)c(Cl)c1)Nc1ccno1 [MSU-39452, 1-(3,4-dichlorophenyl)-3-(1,2-oxazol-5-yl)urea]
melting point: 164 °C

O=C(Nc1ccc(Cl)nc1)Nc1ccno1 [MSU-39448, 1-(6-chloropyridin-3-yl)-3-(1,2-oxazol-5-yl)urea]
melting point: 158 to 159 °C

O=C(O)CCCN1C(=O)c2cccc3cccc(c23)C1=O [virstatin, reference compound]
activity in the whole cell Mtb reporter assay [1]: did not have any impact on DosRST signaling; also recorded: nor did virstatin inhibit the DosRST pathway; also recorded: not effect | impact on DosR binding of DNA (words) (DosR; 2 μM DosR): no impact on DosR binding of DNA | impact on DosR binding of DNA (words) (DosR; 2 μM DosR, listed as Virstatin): did not impact DosR binding of promoter DNA

O=C(Nc1ccc(COc2ccccc2)cc1)Nc1ccno1 [MSU-41545, 3-(1,2-oxazol-5-yl)-1-[4-(phenoxymethyl)phenyl]urea]
melting point: 164 °C

O=C(Nc1ccc(Br)cc1)Nc1ccno1 [MSU-41464, 1-(4-bromophenyl)-3-(1,2-oxazol-5-yl)urea]
melting point: 183 to 184 °C | Microsomes (% remaining @ 30 minutes) ([2]; 30 minutes): 109% remaining

O=C(Nc1ccc(Cl)cn1)Nc1ccno1 [MSU-39450, 1-(5-chloropyridin-2-yl)-3-(1,2-oxazol-5-yl)urea]
melting point: 122 to 123 °C

O=C(Nc1cccc(Br)c1)Nc1ccno1 [MSU-42003, 1-(3-bromophenyl)-3-(1,2-oxazol-5-yl)urea]
melting point: 157 °C

O=C(Nc1ccon1)Nc1ccc(Cl)cc1Cl [HC106C]
activity in the whole cell Mtb reporter assay [1]: no activity

CN(C)CCCN1C(=O)c2cccc3c(Br)ccc(c23)C1=O [HC104A]
EC50 [1, 9]: 9800 nM | EC50 [1, 8]: 9800 nM | impact on Mtb growth (Mtb): minimal impact | inhibition of hspX and tgs1 gene expression during hypoxia [3]: strongly inhibited | downregulation of dosR [3]: 6 fold | downregulation of hspX [3]: 570 fold | downregulation of tgs1 [3]: 13 fold | additional genes repressed that were not repressed in CDC1551(ΔdosR) (DosR regulon): 119 genes | genes from dosR regulon inhibited (DosR regulon): 26 genes | inhibition of hspX induction [6]: 185 fold | inhibition of tgs1 induction [6]: 10 fold | inhibition of hspX following DETA-NONOate treatment [5]: 302 fold | inhibition of tgs1 following DETA-NONOate treatment [5]: 6.6 fold | inhibition of hspX transcripts following vitamin C treatment [5]: 3.4 fold | inhibition of tgs1 transcripts following vitamin C treatment [5]: no effect | reduction of TAG accumulation (TAG accumulation in Mtb): ~50% | survival relative to DMSO control during NRP (Mtb CDC1551): no impact on Mtb survival | effect on DosS autophosphorylation (DosS): no inhibitory activity; also recorded: inhibitory activity was not observed; also recorded: no effect | concentration at which inhibition of DosR DNA binding begins (DosR; 2 μM DosR, doses 1-80 μM): 10 µM | % free DNA (DosR; 20 μM, 2 μM DosR): 72% | % free DNA (DosR; 30 μM, 2 μM DosR): 89% | % free DNA (DosR; 40 μM, 2 μM DosR): 92% | inhibition of DosR DNA binding compared to DMSO (DosR; 40 μM, 2 μM DosR): ~22 fold | % free DNA (DosR; 60 μM, 2 μM DosR): 96% | % free DNA (DosR; 80 μM, 2 μM DosR (normalised as 100%)): 100% | IC50 (DosR; preliminary, data not shown, read-out: IC50 for inhibition of DosR-DNA binding): ~10000 nM

O=C(NCc1ccccc1)Nc1ccno1 [MSU-41462, 1-benzyl-3-(1,2-oxazol-5-yl)urea]
melting point: 128 to 130 °C

O=C(Nc1cccc(O)c1)c1cccc(NC(=O)c2cccs2)c1 [HC103A, reference compound]
effect on DosS autophosphorylation (DosS): strongly inhibited

O=C(Nc1ccno1)Nc1ccc(Cl)cc1Cl [HC106A]
impact on Mtb growth (Mtb): minimal impact | inhibition of hspX and tgs1 gene expression during hypoxia [3]: repressed to undetectable levels | inhibition of hspX and tgs1 gene expression during hypoxia ([3]; listed as H106A): strongly inhibited | downregulation of dosR [3]: 49 fold | downregulation of hspX [3]: 1360 fold | downregulation of tgs1 [3]: 1424 fold | additional genes repressed that were not repressed in CDC1551(ΔdosR) (DosR regulon): 35 genes | genes from dosR regulon inhibited (DosR regulon): 53 genes | inhibition of hspX induction [6]: 6 fold | inhibition of tgs1 induction [6]: 4 fold | inhibition of hspX following DETA-NONOate treatment [5]: 362 fold | inhibition of tgs1 following DETA-NONOate treatment [5]: 151 fold | inhibition of hspX transcripts following vitamin C treatment [5]: 78 fold | inhibition of tgs1 transcripts following vitamin C treatment [5]: 14 fold | reduction of TAG accumulation (TAG accumulation in Mtb): ~50% | survival relative to DMSO control during NRP (Mtb CDC1551): 50% | reduction of survival as compared to DMSO control (Mtb CDC1551; hypoxic shift-down model): 50% | effect on DosS autophosphorylation (DosS): no inhibitory activity; also recorded: no effect | inhibition of hspX, DosS overexpression ([7]; pVV16-DosS): 23 fold | inhibition of tgs1, DosS overexpression ([7]; pVV16-DosS): 16.5 fold | downregulation of hspX, vector control ([7]; pVV16 empty vector): 2331 fold | downregulation of tgs1, vector control ([7]; pVV16 empty vector): 3470 fold | effect on DosRST signaling alone ([4]; 200 nM HC106A alone): no effect on its own | solubility (physchem): 110 µM (≈ 29.9 µg/mL)

CC(C)CNC(=O)Nc1ccno1 [MSU-41542, 3-(2-methylpropyl)-1-(1,2-oxazol-5-yl)urea]
melting point: 187 °C

COc1ccc(NC(=O)Nc2ccno2)cc1 [MSU-39447, 1-(4-methoxyphenyl)-3-(1,2-oxazol-5-yl)urea]
EC50 [1, 9]: 610 nM | melting point: 166 to 167 °C | solubility (physchem): > 100 µM
